Assay results reported in patent US20260176320A1, “MODULATORS OF G-PROTEIN COUPLED RECEPTORS” (priority 2018, published 2026).
Read-outs that look alike come from different tables or passages of the source.

Tests used:
[1] = molecular target: T1, GIP-R (Homo sapiens, UniProt P48546); test: HitHunter cAMP assay (GIP-R); type: cell-based; conditions: Table 3A, cAMP; for Emax: read-out: (Emax) GIP-R
T1 sequence (P48546 22-466): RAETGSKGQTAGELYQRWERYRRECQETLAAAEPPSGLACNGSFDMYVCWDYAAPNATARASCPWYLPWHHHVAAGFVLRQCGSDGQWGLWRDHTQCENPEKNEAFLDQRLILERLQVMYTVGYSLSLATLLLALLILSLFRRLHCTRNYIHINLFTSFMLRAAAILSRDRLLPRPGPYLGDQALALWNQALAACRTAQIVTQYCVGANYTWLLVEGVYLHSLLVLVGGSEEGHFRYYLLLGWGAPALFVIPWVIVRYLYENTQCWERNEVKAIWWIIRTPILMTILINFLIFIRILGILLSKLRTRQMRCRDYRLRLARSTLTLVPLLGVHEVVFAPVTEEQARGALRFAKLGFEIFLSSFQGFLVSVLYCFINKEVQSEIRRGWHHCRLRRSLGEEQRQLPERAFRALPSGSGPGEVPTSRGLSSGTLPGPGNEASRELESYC
Outline: (§1)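 Suspension cells (10,000/well) in HBSS with 10 mM HEPES, 625 μM IBMX, 0.2% BSA exposed to 22-point 2-fold agonist series in duplicate for 30 min at room temperature. cAMP measured by antibody immunocompetition with overnight development, luminescence read-out.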

[2] = molecular target: GLP-1R (Homo sapiens, UniProt P43220); test: HitHunter cAMP assay (GLP-1R); type: cell-based; conditions: Table 3A, cAMP; for Emax: read-out: (Emax) GLP-1R
Outline: as §1

Chain of GLP-1R (P43220 24-463): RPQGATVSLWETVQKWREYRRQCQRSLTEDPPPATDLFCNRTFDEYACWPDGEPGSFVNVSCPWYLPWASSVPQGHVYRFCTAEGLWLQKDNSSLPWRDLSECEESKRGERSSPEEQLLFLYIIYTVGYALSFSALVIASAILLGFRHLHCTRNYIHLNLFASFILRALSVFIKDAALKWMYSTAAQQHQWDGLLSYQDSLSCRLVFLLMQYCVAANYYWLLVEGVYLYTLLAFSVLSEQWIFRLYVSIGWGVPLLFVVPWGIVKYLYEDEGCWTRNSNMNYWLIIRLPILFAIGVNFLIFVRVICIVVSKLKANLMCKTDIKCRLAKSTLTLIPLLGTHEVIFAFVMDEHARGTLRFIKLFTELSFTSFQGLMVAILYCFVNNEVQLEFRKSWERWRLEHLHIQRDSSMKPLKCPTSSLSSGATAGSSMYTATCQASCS

Compound | EC50 ([1]; EC50 GIP-R/nM) | Emax [1] | EC50 ([2]; EC50 GLP-1R/nM) | Emax [2] | EC50 ([1]; read-out: EC50 GIP-R/nM) | EC50 ([2]; read-out: EC50 GLP-1R/nM)
CCCCCCCCCCCCCCCC(=O)N[C@@H](CCC(=O)NCCCC[C@H](NC(=O)[C@H](CO)NC(=O)[C@@H]1CCCN1C(=O)[C@@H]1CCCN1C(=O)[C@@H]1CCCN1C(=O)[C@H](C)NC(=O)CNC(=O)[C@H](CO)NC(=O)[C@H](CO)NC(=O)[C@@H]1CCCN1C(=O)CNC(=O)CNC(=O)[C@H](C)NC(=O)[C@H](CC(C)C)NC(=O)[C@H](CC(C)C)NC(=O)[C@H](Cc1c[nH]c2ccccc12)NC(=O)[C@H](CC(N)=O)NC(=O)[C@@H](NC(=O)[C@H](Cc1ccccc1)NC(=O)[C@H](CCC(=O)O)NC(=O)C(C)(C)NC(=O)[C@H](C)NC(=O)[C@H](C)NC(=O)[C@H](CCC(N)=O)NC(=O)[C@H](CCCCN)NC(=O)[C@H](CC(=O)O)NC(=O)[C@H](CC(C)C)NC(=O)[C@H](Cc1ccc(O)cc1)NC(=O)[C@@H](NC(=O)[C@H](CO)NC(=O)[C@H](Cc1ccc(O)cc1)NC(=O)[C@H](CC(=O)O)NC(=O)[C@H](CO)NC(=O)[C@@H](NC(=O)[C@H](Cc1ccccc1)NC(=O)[C@@H](NC(=O)CNC(=O)[C@H](CCC(=O)O)NC(=O)CSCC(=O)NCCN1C(=O)c2cc3ccccc3cc2C1=O)[C@@H](C)O)[C@@H](C)O)[C@@H](C)CC)C(C)C)C(N)=O)C(=O)O [Compound 249] | 1 to 10 nM | 105% | 10 to 100 nM | 101% |  | 
CCCCCCCCCCCCCCCC(=O)N[C@@H](CCC(=O)NCCCC[C@H](NC(=O)[C@H](CO)NC(=O)[C@@H]1CCCN1C(=O)[C@@H]1CCCN1C(=O)[C@@H]1CCCN1C(=O)[C@H](C)NC(=O)CNC(=O)[C@H](CO)NC(=O)[C@H](CO)NC(=O)[C@@H]1CCCN1C(=O)CNC(=O)CNC(=O)[C@H](C)NC(=O)[C@H](CC(C)C)NC(=O)[C@H](CC(C)C)NC(=O)[C@H](Cc1c[nH]c2ccccc12)NC(=O)[C@H](CC(N)=O)NC(=O)[C@@H](NC(=O)[C@H](Cc1ccccc1)NC(=O)[C@H](CCC(=O)O)NC(=O)C(C)(C)NC(=O)[C@H](C)NC(=O)[C@H](C)NC(=O)[C@H](CCC(N)=O)NC(=O)[C@H](CCCCN)NC(=O)[C@H](CC(=O)O)NC(=O)[C@H](CC(C)C)NC(=O)[C@H](Cc1ccc(O)cc1)NC(=O)[C@@H](NC(=O)[C@H](CO)NC(=O)[C@H](Cc1ccc(O)cc1)NC(=O)[C@H](CC(=O)O)NC(=O)[C@H](CO)NC(=O)[C@@H](NC(=O)[C@H](Cc1ccccc1)NC(=O)[C@@H](NC(=O)CNC(=O)[C@H](CCC(=O)O)NC(=O)C(C)(C)C(=O)NCCn1ccccc1=O)[C@@H](C)O)[C@@H](C)O)[C@@H](C)CC)C(C)C)C(N)=O)C(=O)O [Compound 254] |  | 80% |  |  | 1 to 10 nM | < 0.1 nM
CCCCCCCCCCCCCCCC(=O)N[C@@H](CCC(=O)NCCCC[C@H](NC(=O)[C@H](CO)NC(=O)[C@@H]1CCCN1C(=O)[C@@H]1CCCN1C(=O)[C@@H]1CCCN1C(=O)[C@H](C)NC(=O)CNC(=O)[C@H](CO)NC(=O)[C@H](CO)NC(=O)[C@@H]1CCCN1C(=O)CNC(=O)CNC(=O)[C@H](C)NC(=O)[C@H](CC(C)C)NC(=O)[C@H](CC(C)C)NC(=O)[C@H](Cc1c[nH]c2ccccc12)NC(=O)[C@H](CC(N)=O)NC(=O)[C@@H](NC(=O)[C@H](Cc1ccccc1)NC(=O)[C@H](CCC(=O)O)NC(=O)C(C)(C)NC(=O)[C@H](C)NC(=O)[C@H](C)NC(=O)[C@H](CCC(N)=O)NC(=O)[C@H](CCCCN)NC(=O)[C@H](CC(=O)O)NC(=O)[C@H](CC(C)C)NC(=O)[C@H](Cc1ccc(O)cc1)NC(=O)[C@@H](NC(=O)[C@H](CO)NC(=O)[C@H](Cc1ccc(O)cc1)NC(=O)[C@H](CC(=O)O)NC(=O)[C@H](CO)NC(=O)[C@@H](NC(=O)[C@H](Cc1ccccc1)NC(=O)[C@@H](NC(=O)CNC(=O)[C@H](CCC(=O)O)NC(=O)C(C)(C)C(=O)NCCN1CCOCC1=O)[C@@H](C)O)[C@@H](C)O)[C@@H](C)CC)C(C)C)C(N)=O)C(=O)O [Compound 257] |  | 40% |  |  | 10 to 100 nM | < 0.1 nM
CCCCCCCCCCCCCCCC(=O)N[C@@H](CCC(=O)NCCCC[C@H](NC(=O)[C@H](CO)NC(=O)[C@@H]1CCCN1C(=O)[C@@H]1CCCN1C(=O)[C@@H]1CCCN1C(=O)[C@H](C)NC(=O)CNC(=O)[C@H](CO)NC(=O)[C@H](CO)NC(=O)[C@@H]1CCCN1C(=O)CNC(=O)CNC(=O)[C@H](C)NC(=O)[C@H](CC(C)C)NC(=O)[C@H](CC(C)C)NC(=O)[C@H](Cc1c[nH]c2ccccc12)NC(=O)[C@H](CC(N)=O)NC(=O)[C@@H](NC(=O)[C@H](Cc1ccccc1)NC(=O)[C@H](CCC(=O)O)NC(=O)C(C)(C)NC(=O)[C@H](C)NC(=O)[C@H](C)NC(=O)[C@H](CCC(N)=O)NC(=O)[C@H](CCCCN)NC(=O)[C@H](CC(=O)O)NC(=O)[C@H](CC(C)C)NC(=O)[C@H](Cc1ccc(O)cc1)NC(=O)[C@@H](NC(=O)[C@H](CO)NC(=O)[C@H](Cc1ccc(O)cc1)NC(=O)[C@H](CC(=O)O)NC(=O)[C@H](CO)NC(=O)[C@@H](NC(=O)[C@H](Cc1ccccc1)NC(=O)[C@@H](NC(=O)CNC(=O)[C@H](CCC(=O)O)NC(=O)CCNC(=O)CCN1CCCCCC1=O)[C@@H](C)O)[C@@H](C)O)[C@@H](C)CC)C(C)C)C(N)=O)C(=O)O [Compound 267] |  | 40% |  | 100% | 10 to 100 nM | 
CCCCCCCCCCCCCCCC(=O)N[C@@H](CCC(=O)NCCCC[C@H](NC(=O)[C@H](CO)NC(=O)[C@@H]1CCCN1C(=O)[C@@H]1CCCN1C(=O)[C@@H]1CCCN1C(=O)[C@H](C)NC(=O)CNC(=O)[C@H](CO)NC(=O)[C@H](CO)NC(=O)[C@@H]1CCCN1C(=O)CNC(=O)CNC(=O)[C@H](C)NC(=O)[C@H](CC(C)C)NC(=O)[C@H](CC(C)C)NC(=O)[C@H](Cc1c[nH]c2ccccc12)NC(=O)[C@H](CC(N)=O)NC(=O)[C@@H](NC(=O)[C@H](Cc1ccccc1)NC(=O)[C@H](CCC(=O)O)NC(=O)C(C)(C)NC(=O)[C@H](C)NC(=O)[C@H](C)NC(=O)[C@H](CCC(N)=O)NC(=O)[C@H](CCCCN)NC(=O)[C@H](CC(=O)O)NC(=O)[C@H](CC(C)C)NC(=O)[C@H](Cc1ccc(O)cc1)NC(=O)[C@@H](NC(=O)[C@H](CO)NC(=O)[C@H](Cc1ccc(O)cc1)NC(=O)[C@H](CC(=O)O)NC(=O)[C@H](CO)NC(=O)[C@@H](NC(=O)[C@H](Cc1ccccc1)NC(=O)[C@@H](NC(=O)CNC(=O)[C@H](CCC(=O)O)NC(=O)CSCC(=O)NCCN1Cc2ccccc2CC1=O)[C@@H](C)O)[C@@H](C)O)[C@@H](C)CC)C(C)C)C(N)=O)C(=O)O [Compound 270] | 1 to 10 nM | 90% | 1 to 10 nM | 90% |  | 
CCCCCCCCCCCCCCCC(=O)N[C@@H](CCC(=O)NCCCC[C@H](NC(=O)[C@H](CO)NC(=O)[C@@H]1CCCN1C(=O)[C@@H]1CCCN1C(=O)[C@@H]1CCCN1C(=O)[C@H](C)NC(=O)CNC(=O)[C@H](CO)NC(=O)[C@H](CO)NC(=O)[C@@H]1CCCN1C(=O)CNC(=O)CNC(=O)[C@H](C)NC(=O)[C@H](CC(C)C)NC(=O)[C@H](CC(C)C)NC(=O)[C@H](Cc1c[nH]c2ccccc12)NC(=O)[C@H](CC(N)=O)NC(=O)[C@@H](NC(=O)[C@H](Cc1ccccc1)NC(=O)[C@H](CCC(=O)O)NC(=O)C(C)(C)NC(=O)[C@H](C)NC(=O)[C@H](C)NC(=O)[C@H](CCC(N)=O)NC(=O)[C@H](CCCCN)NC(=O)[C@H](CC(=O)O)NC(=O)[C@H](CC(C)C)NC(=O)[C@H](Cc1ccc(O)cc1)NC(=O)[C@@H](NC(=O)[C@H](CO)NC(=O)[C@H](Cc1ccc(O)cc1)NC(=O)[C@H](CC(=O)O)NC(=O)[C@H](CO)NC(=O)[C@@H](NC(=O)[C@H](Cc1ccccc1)NC(=O)[C@@H](NC(=O)CNC(=O)[C@H](CCC(=O)O)NC(=O)CSCC(=O)NCCN1C(=O)[C@H]2CC[C@@H]1C2)[C@@H](C)O)[C@@H](C)O)[C@@H](C)CC)C(C)C)C(N)=O)C(=O)O [Compound 289] | 10 to 100 nM | 20% | < 0.1 nM | 100% |  | 
CCCCCCCCCCCCCCCC(=O)N[C@@H](CCC(=O)NCCCC[C@H](NC(=O)[C@H](CO)NC(=O)[C@@H]1CCCN1C(=O)[C@@H]1CCCN1C(=O)[C@@H]1CCCN1C(=O)[C@H](C)NC(=O)CNC(=O)[C@H](CO)NC(=O)[C@H](CO)NC(=O)[C@@H]1CCCN1C(=O)CNC(=O)CNC(=O)[C@H](C)NC(=O)[C@H](CC(C)C)NC(=O)[C@H](CC(C)C)NC(=O)[C@H](Cc1c[nH]c2ccccc12)NC(=O)[C@H](CC(N)=O)NC(=O)[C@@H](NC(=O)[C@H](Cc1ccccc1)NC(=O)[C@H](CCC(=O)O)NC(=O)C(C)(C)NC(=O)[C@H](C)NC(=O)[C@H](C)NC(=O)[C@H](CCC(N)=O)NC(=O)[C@H](CCCCN)NC(=O)[C@H](CC(=O)O)NC(=O)[C@H](CC(C)C)NC(=O)[C@H](Cc1ccc(O)cc1)NC(=O)[C@@H](NC(=O)[C@H](CO)NC(=O)[C@H](Cc1ccc(O)cc1)NC(=O)[C@H](CC(=O)O)NC(=O)[C@H](CO)NC(=O)[C@@H](NC(=O)[C@H](Cc1ccccc1)NC(=O)[C@@H](NC(=O)CNC(=O)[C@H](CCC(=O)O)NC(=O)CSCC(=O)NCCN1C(=O)[C@@H]2C=C[C@H]1C2)[C@@H](C)O)[C@@H](C)O)[C@@H](C)CC)C(C)C)C(N)=O)C(=O)O [Compound 290] | 10 to 100 nM | 10% | < 0.1 nM | 100% |  | 
